Laboratory results as given in PMC4682886 (ChemMedChem, 2015).

tested on: C. albicans susceptible strain HLY4123; test: Dose-response curves of test compounds against C. albicans with fluconazole; type: cell-based; settings: strain HLY4123, in combination with fluconazole

| Compound | activity under the conditions of the assay |
| --- | --- |
| Cc1c(Cl)ccc2c1NC(=O)[C@]21[C@H]2C(=O)N(c3ccccc3)C(=O)[C@H]2[C@@H]2C[C@@H](OC(=O)c3ccccc3)CN21 [Compound 25a, (+)-(3S,3a′S,7′R,8a′S,8b′R)-6-chloro-7-methyl-1′,2,3′-tri oxo-2′-phenyl-2′,3′,3a′,6′,7′,8′,8a′,8b′-octahydro-1′H-spiro[indoline-3,4′-pyrrolo[3,4-a]pyrrolizin]-7′-yl benzoate] | almost no activity |
| Cc1c(Cl)ccc2c1NC(=O)[C@@]21[C@@H]2C(=O)N(c3ccccc3)C(=O)[C@@H]2[C@H]2C[C@@H](OC(=O)c3ccccc3)CN21 [Compound 25b, (−)-(3R,3a′R,7′R, 8a′R,8b′S)-6-chloro-7-methyl-1′,2,3′-trioxo-2′-phenyl-2′,3′,3a′,6′,7′,8′, 8a′,8b′-octahydro-1′H-spiro[indoline-3,4′-pyrrolo[3,4-a]pyrrolizin]-7′-yl benzoate] | almost no activity |

same assay, conditions: strain HLY4123, in the presence of fluconazole (0.25 μg/mL); mean ± SD of three independent experiments

| Compound | EC50 [nM] |
| --- | --- |
| O=C1[C@H]2[C@@H](Cc3ccccc3)N[C@]3(C(=O)Nc4ccccc43)[C@H]2C(=O)N1Cc1ccccc1 (racemic) [Compound 8, (±)-(3R,3′R,3a′R,6a′S)-3′,5′-Dibenzyl-2′,3′,3a′,6a′-tetrahydro-4′H-spiro [indoline-3,1′-pyrrolo[3,4-c]pyrrole]-2,4′,6′(5′H)-trione] | ~10000 |
| Cc1c(Cl)ccc2c1NC(=O)[C@@]21[C@H]2C(=O)N(c3ccccc3)C(=O)[C@H]2[C@H]2CN(C(=O)CCc3ccccc3)CCN21 (racemic) [Compound 29, (±)-(3R,3a′R,3b′S,9a′S)-6-chloro-7-methyl-2′-phenyl-5′-(3-phenylpropanoyl)-3a′,4′,5′,6′,7′,9a′-hexahydrospiro[indoline-3,9′-pyrrolo[3′,4′:3,4]pyrrolo[1,2-a]pyrazine]-1′,2,3′(2′H,3b′H)-trione] | 18.1 ± 4 |
| Cc1c(Cl)ccc2c1NC(=O)[C@@]21[C@H]2C(=O)N(c3ccccc3)C(=O)[C@H]2[C@H]2CN(C(=O)OC(C)(C)C)CCN21 (racemic) [Compound 14, (±)-tert-Butyl (3R,3a′R,3b′S,9a′S)-6-chloro-7-methyl-1′,2,3′-trioxo-2′-phenyl-2′,3′,3a′,3b′,4′,6′,7′,9a′-octahydrospiro[indoline-3,9′-pyrrolo[3′, 4′:3,4]pyrrolo[1,2-a]pyrazine]-5′(1′H)-carboxylate] | 5.6 ± 3 |
| Cc1cccc2c1NC(=O)[C@@]21[C@H]2C(=O)N(c3ccccc3)C(=O)[C@H]2[C@H]2CN(C(=O)OC(C)(C)C)CCN21 (racemic) [Compound 22, (±)-tert-Butyl (3R,3a′R,3b′S,9a′S)-7-methyl-1′,2,3′-trioxo-2′-phenyl-2′, 3′,3a′,3b′,4′,6′,7′,9a′-octahydrospiro[indoline-3,9′-pyrrolo[3′,4′:3,4]pyrrolo[1,2-a]pyrazine]-5′(1′H)-carboxylate] | 213 ± 80 |
| CO[C@H](C(=O)N1CCN2[C@H](C1)[C@@H]1C(=O)N(c3ccccc3)C(=O)[C@@H]1[C@@]21C(=O)Nc2c1ccc(Cl)c2C)c1ccccc1 (racemic) [Compound 28, (±)-(3R,3a′R,3b′S,9a′S)-6-chloro-5′-((S)-2-methoxy-2-phenylacetyl)-7-methyl-2′-phenyl-3a′,4′,5′,6′,7′,9a′-hexahydrospiro [indoline-3,9′-pyrrolo[3′,4′:3,4]pyrrolo[1,2-a]pyrazine]-1′,2,3′(2′H, 3b′H)-trione] | 35 ± 7 |
| COC(=O)CCCCCCCCC(=O)N1CCN2[C@H](C1)[C@@H]1C(=O)N(c3ccccc3)C(=O)[C@@H]1[C@@]21C(=O)Nc2c1ccc(Cl)c2C (racemic) [Compound 27, (±)-methyl 10-((3R,3a′R,3b′S,9a′S)-6-chloro-7-methyl-1′,2,3′-trioxo-2′-phenyl-2′,3′,3a′,3b′,4′,6′,7′,9a′-octahydrospiro [indoline-3,9′-pyrrolo[3′,4′:3,4]pyrrolo[1,2-a]pyrazin]-5′(1′H)-yl)-10-oxodecanoate] | 37.9 ± 9 |
| (±)-tert-Butyl (3R,3a′R,3b′S,9a′S)-2′-benzyl-1′,2,3′-trioxo-2′,3′,3a′,3b′, 4′,6′,7′,9a′-octahydrospiro[indoline-3,9′-pyrrolo[3′,4′:3,4]pyrrolo[1,2-a]pyrazine]-5′(1′H)-carboxylate [Compound 19] | > 100000 |
| Cc1c(Cl)ccc2c1NC(=O)[C@@]21[C@H]2C(=O)N(c3ccc(F)cc3)C(=O)[C@H]2[C@H]2CN(C(=O)OC(C)(C)C)CCN21 (racemic) [Compound 15, (±)-tert-Butyl (3R,3a′R,3b′S,9a′S)-6-chloro-2′-(4-fluorophenyl)-7-methyl-1′,2,3′-trioxo-2′,3′,3a′,3b′,4′,6′,7′,9a′-octahydrospiro[indoline-3,9′-pyrrolo[3′,4′:3,4]pyrrolo[1,2-a]pyrazine]-5′(1′H)-carboxylate] | 37 ± 1 |
| CC(C)(C)OC(=O)NCCCC[C@H]1N[C@]2(C(=O)Nc3ccccc32)[C@H]2C(=O)N(Cc3ccccc3)C(=O)[C@@H]12 (racemic) [Compound 10, (±)-tert-Butyl (4-((3R,3′R,3a′R,6a′S)-5′-benzyl-2,4′,6′-trioxo-3′,3a′,4′,5′, 6′,6a′-hexahydro-2′H-spiro[indoline-3,1′-pyrrolo[3,4-c]pyrrol]-3′-yl)butyl)carbamate] | > 100000 |
| Cc1c(Cl)ccc2c1NC(=O)[C@@]21[C@H]2C(=O)N(c3cc(C(F)(F)F)cc(C(F)(F)F)c3)C(=O)[C@H]2[C@H]2CN(C(=O)OC(C)(C)C)CCN21 (racemic) [Compound 16, (±)-tert-Butyl (3R,3a′R,3b′S,9a′S)-2′-(3,5-bis(trifluoromethyl)phenyl)-6-chloro-7-methyl-1′,2,3′-trioxo-2′,3′,3a′,3b′,4′,6′,7′,9a′-octahydrospiro [indoline-3,9′-pyrrolo[3′,4′:3,4]pyrrolo[1,2-a]pyrazine]-5′(1′H)-carboxy late] | 23.7 ± 10 |
| O=C1[C@H]2[C@@H](Cc3ccccc3)N[C@]3(C(=O)N(Cc4ccccc4)c4ccccc43)[C@H]2C(=O)N1Cc1ccccc1 (racemic) [Compound 11, (±)-(3R,3′R,3a′R,6a′S)-1,3′,5′-Tribenzyl-2′,3′,3a′,6a′-tetrahydro-4′H-spi ro[indoline-3,1′-pyrrolo[3,4-c]pyrrole]-2,4′,6′(5′H)-trione] | > 10000 |
| Cc1c(Cl)ccc2c1NC(=O)[C@]21N[C@H](Cc2ccccc2)[C@@H]2C(=O)N(c3ccccc3)C(=O)[C@@H]21 (racemic) [Compound 13, (±)-(3R,3′R,3a′R,6a′S)-3′-Benzyl-6-chloro-7-methyl-5′-phenyl-2′,3′,3a′, 6a′-tetrahydro-4′H-spiro[indoline-3,1′-pyrrolo[3,4-c]pyrrole]-2,4′,6′ (5′H)-trione] | 1 ± 0.5 |
| O=C1[C@H]2[C@@H](Cc3ccccc3)N[C@]3(C(=O)N(Cc4ccccc4)c4ccccc43)[C@H]2C(=O)N1c1ccccc1 (racemic) [Compound 12, (±)-(3R,3′R,3a′R,6a′S)-1,3′-Dibenzyl-5′-phenyl-2′,3′,3a′,6a′-tetrahydro-4′H-spiro[indoline-3,1′-pyrrolo[3,4-c]pyrrole]-2,4′,6′(5′H)-trione] | > 100000 |
| Cc1c(Cl)ccc2c1NC(=O)[C@@]21[C@H]2C(=O)N(c3ccccc3)C(=O)[C@H]2[C@H]2CNCCN21 (racemic) [Compound 26, (±)-(3R,3a′R,3b′S,9a′S)-6-chloro-7-methyl-2′-phenyl-3a′,4′,5′,6′,7′,9a′-hexahydrospiro[indoline-3,9′-pyrrolo[3′,4′:3,4]pyrolo[1,2-a]pyrazine]-1′,2,3′(2′H,3b′H)-trione] | ~10000 |
